Assays:
Assay type in all cases: biochemical
JAK3 = JAK3 (Homo sapiens (Human), UniProt P52333); test: JAK3 kinase inhibition assay (33P-ATP, Reaction Biology Corp.); conditions: substrate JAK3tide, 120 min at room temperature, read-out: In Vitro Enzyme IC50 (nM) JAK3
Experimental: (§1) Compounds of the invention were assayed for their ability to inhibit TYK2 kinase and other JAK kinases.
(§2) Substrates and kinases used in the assays are identified in Table 2 below.

JAK1 = JAK1 (Homo sapiens (Human), UniProt P23458); test: JAK1 kinase inhibition assay (33P-ATP, Reaction Biology Corp.); conditions: substrate pEY, 120 min at room temperature, read-out: In Vitro Enzyme IC50 (nM) JAK1
Experimental: as §1, §2

TYK2 kinase = TYK2 kinase (Homo sapiens (Human), UniProt P29597); test: TYK2 kinase inhibition assay (33P-ATP, Reaction Biology Corp.); conditions: substrate AXLtide, 120 min at room temperature, read-out: In Vitro Enzyme IC50 (nM) TYK2
Experimental: as §1, §2

JAK2 = JAK2 (Homo sapiens (Human), UniProt O60674); test: JAK2 kinase inhibition assay (33P-ATP, Reaction Biology Corp.); conditions: substrate pEY, 120 min at room temperature, read-out: In Vitro Enzyme IC50 (nM) JAK2
Experimental: as §1, §2

JAK2, sequence (O60674 809-1132): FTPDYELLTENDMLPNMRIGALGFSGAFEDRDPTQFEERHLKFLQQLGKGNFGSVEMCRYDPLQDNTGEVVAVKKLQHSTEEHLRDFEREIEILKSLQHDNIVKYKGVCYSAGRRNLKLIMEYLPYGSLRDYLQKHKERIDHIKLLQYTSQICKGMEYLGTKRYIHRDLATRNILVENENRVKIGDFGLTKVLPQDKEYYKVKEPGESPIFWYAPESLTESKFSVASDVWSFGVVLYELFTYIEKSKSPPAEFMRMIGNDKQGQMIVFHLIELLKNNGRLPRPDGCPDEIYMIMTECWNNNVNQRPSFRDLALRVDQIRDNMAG
TYK2 kinase, sequence (P29597 833-1187): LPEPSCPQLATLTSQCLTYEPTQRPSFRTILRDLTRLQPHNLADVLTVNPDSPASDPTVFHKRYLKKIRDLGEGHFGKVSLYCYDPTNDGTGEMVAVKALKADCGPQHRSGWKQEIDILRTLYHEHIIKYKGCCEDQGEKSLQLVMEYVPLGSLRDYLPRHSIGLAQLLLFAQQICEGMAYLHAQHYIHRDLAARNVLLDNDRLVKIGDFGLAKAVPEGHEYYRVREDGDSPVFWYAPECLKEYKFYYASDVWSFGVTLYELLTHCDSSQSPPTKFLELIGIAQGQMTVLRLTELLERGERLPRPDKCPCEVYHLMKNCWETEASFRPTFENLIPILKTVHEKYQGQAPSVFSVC
JAK1, sequence (P23458 866-1154): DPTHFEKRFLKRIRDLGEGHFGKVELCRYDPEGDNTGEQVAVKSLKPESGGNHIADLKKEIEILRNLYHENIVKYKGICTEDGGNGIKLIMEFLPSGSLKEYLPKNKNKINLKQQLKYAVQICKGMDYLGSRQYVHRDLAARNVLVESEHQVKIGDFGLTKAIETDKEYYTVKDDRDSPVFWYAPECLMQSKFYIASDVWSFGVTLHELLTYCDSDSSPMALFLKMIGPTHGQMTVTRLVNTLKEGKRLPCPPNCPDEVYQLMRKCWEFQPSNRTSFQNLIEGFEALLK
JAK3, sequence (P52333 781-1124): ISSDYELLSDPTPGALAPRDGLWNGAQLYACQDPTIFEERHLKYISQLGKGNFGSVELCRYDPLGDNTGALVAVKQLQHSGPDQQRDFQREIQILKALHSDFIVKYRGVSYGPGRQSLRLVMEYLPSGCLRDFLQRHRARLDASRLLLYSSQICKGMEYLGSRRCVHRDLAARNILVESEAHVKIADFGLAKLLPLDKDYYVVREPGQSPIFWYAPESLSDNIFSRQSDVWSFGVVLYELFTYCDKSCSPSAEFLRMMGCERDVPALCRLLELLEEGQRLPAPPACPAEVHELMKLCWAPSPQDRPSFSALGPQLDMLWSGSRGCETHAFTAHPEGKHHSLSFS

`CS(=O)(=O)c1ccc(Nc2oc(-c3c(F)cccc3F)nc2C(N)=O)cc1` [Example 1, 2-(2,6-difluorophenyl)-5-(4-(methylsulfonyl)phenylamino)oxazole-4-carboxamide] was tested. Which IC50 (JAK3) did it give?
The IC50 was 405 nM.

And the IC50 (JAK1)?
Its IC50 is 90.2 nM.

And the IC50 (TYK2 kinase)?
The IC50 was 13.5 nM.

What about the IC50 (JAK2) of the same compound?
Its IC50 is 235 nM.

`NC(=O)c1nc(-c2c(F)cccc2F)oc1Nc1ccc(S(N)(=O)=O)cc1` [Example 2, 2-(2,6-difluorophenyl)-5-(4-sulfamoylphenylamino)oxazole-4-carboxamide] was tested. Which IC50 (JAK3) did it give?
Its IC50 is 419 nM.

And the IC50 (JAK1)?
The IC50 was 78.2 nM.

What about the IC50 (TYK2 kinase) of the same compound?
Its IC50 is 14.6 nM.

And the IC50 (JAK2)?
The IC50 was 147 nM.

For `CN(C)S(=O)(=O)c1ccc(Nc2oc(-c3c(F)cccc3F)nc2C(N)=O)cc1` [Example 3, 2-(2,6-difluorophenyl)-5-(4-(N,N-dimethylsulfamoyl)phenylamino)oxazole-4-carboxamide], which IC50 (JAK3) is on record?
The IC50 was 359 nM.

And the IC50 (JAK1)?
The IC50 was 47.6 nM.

What about the IC50 (TYK2 kinase) of the same compound?
Its IC50 is 5.3 nM.

And the IC50 (JAK2)?
Its IC50 is 95 nM.

With `CNS(=O)(=O)c1ccc(Nc2oc(-c3c(F)cccc3F)nc2C(N)=O)cc1` [Example 4, 2-(2,6-difluorophenyl)-5-(4-(N′-methylsulfamoyl)phenylamino)oxazole-4-carboxamide] as the compound, how does the IC50 (JAK3) read?
Its IC50 is 387 nM.

What about the IC50 (JAK1) of the same compound?
The IC50 was 65.6 nM.

What about the IC50 (TYK2 kinase) of the same compound?
Its IC50 is 13.8 nM.

And the IC50 (JAK2)?
The IC50 was 109 nM.

What does the source list for `CN(C)C(=O)c1ccc(Nc2oc(-c3c(F)cccc3F)nc2C(N)=O)cc1` [Example 5, 2-(2,6-difluorophenyl)-5-(4-(dimethylcarbamoyl)phenylamino)oxazole-4-carboxamide]?
IC50 (JAK3): 219 nM; IC50 (JAK1): 88.6 nM; IC50 (TYK2 kinase): 9.2 nM; IC50 (JAK2): 112 nM

What does the source list for `NCCCNC(=O)c1ccc(Nc2oc(-c3c(F)cccc3F)nc2C(N)=O)cc1` [Example 6, 5-(4-((3-aminopropyl)carbamoyl)phenylamino)-2-(2,6-difluorophenyl)oxazole-4-carboxamide]?
IC50 (JAK3): 472 nM; IC50 (JAK1): 192 nM; IC50 (TYK2 kinase): 25 nM; IC50 (JAK2): 297 nM

Which results are given for `NC(=O)c1nc(-c2c(F)cccc2F)oc1Nc1ccc(C(=O)N[C@@H]2CCCNC2)cc1` [Example 7, (R)-2-(2,6-difluorophenyl)-5-(4-(piperidin-3-ylcarbamoyl)phenylamino)oxazole-4-carboxamide]?
IC50 (JAK3): 419 nM; IC50 (JAK1): 202 nM; IC50 (TYK2 kinase): 9.8 nM; IC50 (JAK2): 261 nM

Which IC50 (JAK3) does the source give for `NC(=O)c1nc(-c2c(F)cccc2F)oc1Nc1ccc(C(=O)N[C@H]2CCCNC2)cc1` [Example 8, (S)-2-(2,6-difluorophenyl)-5-(4-(piperidin-3-ylcarbamoyl)phenylamino)oxazole-4-carboxamide] here?
Its IC50 is 408 nM.

What about the IC50 (JAK1) of the same compound?
Its IC50 is 201 nM.

What about the IC50 (TYK2 kinase) of the same compound?
The IC50 was 12.9 nM.

What about the IC50 (JAK2) of the same compound?
The IC50 was 268 nM.

For `NC(=O)c1nc(-c2c(F)cccc2F)oc1Nc1ccc(C(=O)N2CCOCC2)cc1` [Example 9, 2-(2,6-difluorophenyl)-5-(4-(morpholine-4-carbonyl)phenylamino)oxazole-4-carboxamide], which IC50 (JAK3) is on record?
The IC50 was 423 nM.

What about the IC50 (JAK1) of the same compound?
The IC50 was 75.6 nM.

What about the IC50 (TYK2 kinase) of the same compound?
Its IC50 is 22.7 nM.

What about the IC50 (JAK2) of the same compound?
Its IC50 is 267 nM.

What does the source list for `CNCCNC(=O)c1ccc(Nc2oc(-c3c(F)cccc3F)nc2C(N)=O)cc1` [Example 10, 5-(4-((2-(methylamino)ethyl)carbamoyl)phenylamino)-2-(2,6-difluorophenyl) oxazole-4-carboxamide]?
IC50 (JAK3): 397 nM; IC50 (JAK1): 183 nM; IC50 (TYK2 kinase): 20.5 nM; IC50 (JAK2): 311 nM

For `CNCCCNC(=O)c1ccc(Nc2oc(-c3c(F)cccc3F)nc2C(N)=O)cc1` [Example 11, 5-(4-((3-(methylamino)propyl)carbamoyl)phenylamino)-2-(2,6-difluorophenyl) oxazole-4-carboxamide], which IC50 (JAK3) is on record?
Its IC50 is 388 nM.

And the IC50 (JAK1)?
Its IC50 is 190 nM.

And the IC50 (TYK2 kinase)?
Its IC50 is 15.1 nM.

What about the IC50 (JAK2) of the same compound?
Its IC50 is 338 nM.

`NC(=O)c1nc(-c2c(F)cccc2F)oc1Nc1ccc(C(=O)N[C@@H]2CCNC2)cc1` [Example 12, (R)-2-(2,6-difluorophenyl)-5-(4-(pyrrolidin-3-ylcarbamoyl)phenylamino)oxazole-4-carboxamide] was tested. Which IC50 (JAK3) did it give?
Its IC50 is 346 nM.

And the IC50 (JAK1)?
The IC50 was 169 nM.

What about the IC50 (TYK2 kinase) of the same compound?
The IC50 was 23.4 nM.

What about the IC50 (JAK2) of the same compound?
The IC50 was 292 nM.

`NC(=O)c1nc(-c2c(F)cccc2F)oc1Nc1ccc(C(=O)N[C@H]2CCNC2)cc1` [Example 13, (S)-2-(2,6-difluorophenyl)-5-(4-(pyrrolidin-3-ylcarbamoyl)phenylamino)oxazole-4-carboxamide] was tested. Which IC50 (JAK3) did it give?
The IC50 was 342 nM.

And the IC50 (JAK1)?
The IC50 was 123 nM.

And the IC50 (TYK2 kinase)?
The IC50 was 11.2 nM.

What about the IC50 (JAK2) of the same compound?
The IC50 was 182 nM.

With `NC(=O)c1nc(-c2c(F)cccc2F)oc1Nc1ccc(C(=O)N2CCC[C@@H]2CO)cc1` [Example 14, (R)-2-(2,6-difluorophenyl)-5-(4-(2-(hydroxymethyl)pyrrolidine-1-carbonyl)phenylamino)oxazole-4-carboxamide] as the compound, how does the IC50 (JAK3) read?
Its IC50 is 126 nM.

And the IC50 (JAK1)?
Its IC50 is 67.2 nM.

And the IC50 (TYK2 kinase)?
Its IC50 is 9.6 nM.

And the IC50 (JAK2)?
The IC50 was 36 nM.

With `NC(=O)c1nc(-c2c(F)cccc2F)oc1Nc1ccc(C(=O)NCCO)cc1` [Example 15, 5-(4-((2-hydroxyethyl)carbamoyl)phenylamino)-2-(2,6-difluorophenyl)oxazole-4-carboxamide] as the compound, how does the IC50 (JAK3) read?
The IC50 was 195 nM.

And the IC50 (JAK1)?
Its IC50 is 41.1 nM.

And the IC50 (TYK2 kinase)?
Its IC50 is 7.5 nM.

What about the IC50 (JAK2) of the same compound?
The IC50 was 101 nM.

What does the source list for `NC(=O)c1nc(-c2c(F)cccc2F)oc1Nc1ccc(C(=O)NCCCO)cc1` [Example 16, 5-(4-((3-hydroxypropyl)carbamoyl)phenylamino)-2-(2,6-difluorophenyl)oxazole-4-carboxamide]?
IC50 (JAK3): 199 nM; IC50 (JAK1): 58.1 nM; IC50 (TYK2 kinase): 8.4 nM; IC50 (JAK2): 119 nM

How did the IC50 (JAK3) turn out when `NC(=O)c1nc(-c2c(F)cccc2F)oc1Nc1ccc(C(=O)NC2CCNCC2)cc1` [Example 17, 2-(2,6-difluorophenyl)-5-(4-(piperidin-4-ylcarbamoyl)phenylamino)oxazole-4-carboxamide] was run?
Its IC50 is 99.2 nM.

What about the IC50 (JAK1) of the same compound?
Its IC50 is 153 nM.

And the IC50 (TYK2 kinase)?
The IC50 was 13.7 nM.

What about the IC50 (JAK2) of the same compound?
Its IC50 is 167 nM.

Which IC50 (JAK3) does the source give for `CN1CCC(NC(=O)c2ccc(Nc3oc(-c4c(F)cccc4F)nc3C(N)=O)cc2)CC1` [Example 18, 5-(4-((1-methylpiperidin-4-yl)carbamoyl)phenylamino)-2-(2,6-difluorophenyl) oxazole-4-carboxamide] here?
Its IC50 is 165 nM.

And the IC50 (JAK1)?
Its IC50 is 118 nM.

And the IC50 (TYK2 kinase)?
The IC50 was 13.8 nM.

And the IC50 (JAK2)?
Its IC50 is 192 nM.

What does the source list for `CS(=O)(=O)c1ccc(Nc2oc(-c3c(Cl)cccc3Cl)nc2C(N)=O)cc1` [Example 19, 2-(2,6-Dichloro-phenyl)-5-(4-methanesulfonyl-phenylamino)-oxazole-4-carboxylic acid amide]?
IC50 (JAK3): 214 nM; IC50 (JAK1): 21.9 nM; IC50 (TYK2 kinase): 2.3 nM; IC50 (JAK2): 87.7 nM

`CS(=O)(=O)c1ccc(Nc2oc(-c3c(F)cccc3Cl)nc2C(N)=O)cc1` [Example 20, 2-(2-Chloro-6-fluoro-phenyl)-5-(4-methanesulfonyl-phenylamino)-oxazole-4-carboxylic acid amide] was tested. Which IC50 (JAK3) did it give?
Its IC50 is 165 nM.

And the IC50 (JAK1)?
Its IC50 is 28.7 nM.

What about the IC50 (TYK2 kinase) of the same compound?
The IC50 was 2.7 nM.

What about the IC50 (JAK2) of the same compound?
Its IC50 is 72.6 nM.

How did the IC50 (JAK3) turn out when `CS(=O)(=O)c1ccc(Nc2oc(-c3c(F)cc(F)cc3F)nc2C(N)=O)cc1` [Example 21, 5-(4-Methanesulfonyl-phenylamino)-2-(2,4,6-trifluoro-phenyl)-oxazole-4-carboxylic acid amide] was run?
The IC50 was 2180 nM.

What about the IC50 (JAK1) of the same compound?
The IC50 was 241 nM.

What about the IC50 (TYK2 kinase) of the same compound?
Its IC50 is 68.3 nM.

And the IC50 (JAK2)?
The IC50 was 412 nM.

Which results are given for `CS(=O)(=O)c1ccc(Nc2oc(-c3cc(F)ccc3F)nc2C(N)=O)cc1` [Example 22, 2-(2,5-Difluoro-phenyl)-5-(4-methanesulfonyl-phenylamino)-oxazole-4-carboxylic acid amide]?
IC50 (JAK3): 5500 nM; IC50 (JAK1): 843 nM; IC50 (TYK2 kinase): 183 nM; IC50 (JAK2): 663 nM
